Results as given in paper PMC8244912, “An oxytocin/vasopressin-related neuropeptide modulates social foraging behavior in the clonal raider ant” (PLoS Biology, 2021).
pEC50: −log10 of the molar value. Entries after “also recorded” stand apart in the source; their conditions may differ.

Key:
[1] = system: HEK293T cells transfected with an empty vector; assay: Calcium flux, HEK293T cells transfected with empty vector; assay type: cell-based, human; conditions: ATP 10 μM (cell health control)
Method: (§1) Human embryonic kidney 293T (HEK293T) cells were cultured in DMEM supplemented with 10% FBS at 37°C in a tissue culture incubator with a humidified atmosphere containing 5% CO2. Cells were plated in 10-cm dishes, and, when they reached 60% to 70% confluency, they were transfected with a pcDNA3.3 vector containing approximately 1 ng of inotocin receptor cDNA or an empty vector as a control using Lipofectamine 2000. Cells were transfected directly into poly-D-lysine–coated 384-well plates and incubated for 48 hours at 37°C. Subsequently, cells were incubated with FLIPR Calcium 4 Assay kit dye for 1 hour in the incubator. The fluorescence (excitation, 488 nm; emission, 530 nm) of the wells was recorded using a Flex Station II 384 (Molecular Devices, San Jose, California, USA), and a dose curve of inotocin (0 to 3 μM) was applied to the wells, in sextuplicate (see below for inotocin peptide synthesis). We calculated the EC50 values using Prism (GraphPad Software version 8) nonlinear regression, 4-parameter logistic curve fit. Dose curves were repeated at least 3 times on independently prepared samples and different days. Results were consistent across replicates, and example dose curves are shown in Fig 1C and S4A Fig. Control experiments are shown in S2–S5 Figs.

HEK293 cells = conditions: oxytocin: ref Burger, Fahrenholz et al. 1999, Ma, Hashii et al. 2013, vasopressin: ref Burger; cited from earlier work
Excerpt: (§2) We have edited this last sentence of the abstract to: “Inotocin signaling thereby likely contributes to behavioral individuality an ...

[2] = system: untransfected HEK293 cell membranes; conditions: ref Jasper, Harrell et al. 1995; cited from earlier work
Excerpt: as §2

[3] = target: O. biroi inotocin receptor (ObiroiItr_A) (Ooceraea biroi, UniProt A0A8F5LPT9); assay: Calcium flux, HEK293T cells transfected with full-length inotocin receptor (FLIPR Calcium 4); assay type: cell-based; conditions: for calcium response: HEK293T cells expressing full-length itcR; for LogEC50 / HillSlope: variable slope
Sequence of O. biroi inotocin receptor (ObiroiItr_A) (A0A8F5LPT9 entry or part of it): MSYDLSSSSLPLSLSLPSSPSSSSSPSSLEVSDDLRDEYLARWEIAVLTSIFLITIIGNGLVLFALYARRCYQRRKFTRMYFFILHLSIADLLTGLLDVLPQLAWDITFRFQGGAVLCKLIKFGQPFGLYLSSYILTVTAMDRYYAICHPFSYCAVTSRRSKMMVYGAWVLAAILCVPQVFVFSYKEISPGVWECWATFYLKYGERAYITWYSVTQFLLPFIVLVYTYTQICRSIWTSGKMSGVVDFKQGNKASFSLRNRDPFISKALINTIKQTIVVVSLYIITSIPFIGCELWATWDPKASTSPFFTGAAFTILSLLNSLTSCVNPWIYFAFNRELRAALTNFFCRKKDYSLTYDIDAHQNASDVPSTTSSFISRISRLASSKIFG
Excerpt: RNA was isolated in TRIzol using the RNeasy (Qiagen, Germantown, Maryland, USA) purification kit with DNAse I (Qiagen) on-column digestion as in [52] from a sample that contained adult ants, larvae, and pupae and reverse-transcribed into cDNA. Full-length cDNAs for the O. biroi inotocin receptor were PCR amplified with primers 5′-[…]-3′ and 5′-[…]-3′, using the Easy-A high fidelity polymerase (Agilent, Santa Clara, California, USA) to generate PCR products with 5′-Kozak consensus sequences and 3′-A overhangs. The inotocin receptor cDNAs were cloned into the pcDNA3.3 TOPO TA cloning vector (Invitrogen, Waltham, Massachusetts, USA) following manufacturer’s guidelines.
The full-length inotocin receptor cDNA sequence that was cloned and used for calcium assays is ObiroiItr_A (GenBank MW660838; for protein sequence, see S1 Fig). We also tested splice variant ObiroiItr_H (GenBank MW660845; for protein sequence, see S1 Fig), which lacks TM4-7, for calcium activity.
as §1, with “[…],” for “and a dose curve of inotocin (0 to 3 μM) was applied to the wells,”, “days.” for “days. Results were consistent across replicates, and example dose curves are shown in Fig 1C and S4A Fig. Control experiments are shown in S2–S5 Figs.”

itcR from Lasius ants = conditions: CHO cells; ref Koto, Motoyama et al. 2019; cited from earlier work
Excerpt: as §2

beetle inotocin receptor = conditions: CHO cells; ref Stafflinger, Hansen et al. 2008; cited from earlier work
Excerpt: as §2

Question: With Nc1ncnc2c1ncn2[C@@H]1O[C@H](COP(=O)(O)OP(=O)(O)OP(=O)(O)O)[C@@H](O)[C@H]1O [ATP, reference compound] as the compound, how does the “calcium response” value [1] read?
Answer: are healthy and show calcium responses

Question: For N=C(N)NCCC[C@H](NC(=O)[C@@H]1CCCN1C(=O)[C@@H]1CSSC[C@H](N)C(=O)N[C@@H](Cc2ccc(O)cc2)C(=O)N[C@@H](Cc2ccccc2)C(=O)N[C@@H](CCC(N)=O)C(=O)N[C@@H](CC(N)=O)C(=O)N1)C(=O)NCC(N)=O [AVP], which “calcium responses of untransfected and mock transfected HEK293 cells” value (HEK293 cells) is on record?
Answer: do not show calcium

Question: What about the “binding of radiolabeled peptide” value [2] of the same compound?
Answer: do not bind

Question: What about the pEC50 [3] of the same compound?
Answer: 4.90

Question: And the “calcium response” value ([3]; listed as vasopressin)?
Answer: also elicit calcium responses; also recorded: also produced calcium transients

Question: And the LogEC50 ([3]; S4C Fig, AVP, SE 0.09024, 95% CI -5.083 to -4.715)?
Answer: -4.899

Question: What about the HillSlope ([3]; S4C Fig, AVP, SE 0.1917, 95% CI 0.6094 to 1.391) of the same compound?
Answer: 1

Question: For CC[C@H](C)[C@@H]1NC(=O)[C@H](Cc2ccc(O)cc2)NC(=O)[C@@H](N)CSSC[C@@H](C(=O)N2CCC[C@H]2C(=O)N[C@@H](CC(C)C)C(=O)NCC(N)=O)NC(=O)[C@H](CC(N)=O)NC(=O)[C@H](CCC(N)=O)NC1=O [oxytocin], which “calcium responses of untransfected and mock transfected HEK293 cells” value (HEK293 cells) is on record?
Answer: do not show calcium

Question: And the “receptor response” value (itcR from Lasius ants)?
Answer: respond

Question: And the “receptor response” value (beetle inotocin receptor)?
Answer: responds

Question: What about the “binding of radiolabeled peptide” value [2] of the same compound?
Answer: do not bind

Question: What about the pEC50 [3] of the same compound?
Answer: 6.08

Question: What about the “calcium response” value [3] of the same compound?
Answer: also elicit calcium responses; also recorded: also produced calcium transients

Question: What about the HillSlope ([3]; S4B Fig, oxytocin, SE 0.05165, 95% CI 0.5075 to 0.7181) of the same compound?
Answer: 0.6128

Question: What about the LogEC50 ([3]; S4B Fig, oxytocin, X data log of Molar_Oxytocin, SE 0.0661, 95% CI -6.213 to -5.944) of the same compound?
Answer: -6.078

Question: For “NRPCGLTCI [scrambled control peptide, scrambled version of inotocin (…) as negative control with identical amino acid composition]”, which “calcium response” value [3] is on record?
Answer: No Ca^2+ influx is detected
